Data reported in patent publication US20230348538A1, “METHOD FOR TREATMENT OF DRY EYE COMPRISNG APPLYING P55PIK INHIBITOR” (Wuhan Yicheng Biological Technology Co., Ltd., priority 2020, published 2023).

Tested on: rabbit model of dry eye (0.1% benzalkonium chloride)
Test: Rabbit model of dry eye: Schirmer's test
Assay type: in vivo, New Zealand white rabbits
Experimental: 1.2.1 Grouping: thirty New Zealand white rabbits were randomly divided into three groups, each comprising 10 rabbits: a blank control group, a solvent control group, and a drug treatment group.
1.2.2 Preparation of a rabbit model of dry eye: the right eye of each rabbit was used to establish a dry eye rabbit model by administering 0.1% benzalkonium chloride eye drops twice a day for 4 weeks. After 4 weeks, the dry eye rabbit model was evaluated, with the conjunctiva appearing dry, tear production being reduced, and Schirmer test values being less than 10 mm/5 min (compared to the control group, where all Schirmer test values were above 10 mm).
1.2.3 Drug preparation and usage: a liquid formulation of 0.1% TAT-N16 peptide eye drops were prepared by dissolving the peptide raw materials in physiological saline according to a weight ratio of 0.1%. The eye drops comprising 0.1% TAT-N16 peptide were administered 2 drops, 3 times a day for 7 days. The blank control group received no treatment, and the solvent control group received physiological saline eye drops 2 drops, 3 times a day for 7 days. The normal eye group served as a normal control group.
1.3 Specimen collection and animal testing were conducted by the same individual. […] The rabbit conjunctiva appearance, fluorescein staining, tear film break-up time were analyzed using a slit lamp before and on days 4 and 7 after treatment; additionally, the Schirmer's test and conjunctival impression cytology (CIC) were carried out.
1.3.1 Schirmer's test: the corneal surface was anesthetized with oxybuprocaine hydrochloride; a cotton swab was used to absorb the fluid around the eyelid; the Schirmer tear test strips were placed at the junction of the ⅓ posterior-middle of the lower conjunctival sac of the New Zealand white rabbit, with the remaining part hanging on the skin surface; the New Zealand white rabbit was then instructed to close its eyes, and after 5 minutes, the length of wet portion of the Schirmer tear test strips was measured.

TAT-N16 peptide: cell-penetrating artificial peptide, sequence SEQ ID NO: 2, constructed by linking the peptide N16 to a TAT sequence; P55PIK inhibitor (YGRKKRRQRRRMMPYSTELIFYIEMDP)
Schirmer' test values (0 d / before treatment (baseline), drug treatment group): 8.38±0.57 mm | Schirmer' test values (4 d, 0.1% eye drops 2 drops, 3 times a day): 12.02±1.21 mm | Schirmer' test values (7 d, 0.1% eye drops 2 drops, 3 times a day): 16.31±1.45 mm
